The text below walks through data of US9441208B2, “Methods and compositions for producing vitamin K dependent proteins” (The University of North Carolina at Chapel Hill, priority 2003, dated 2016).

The target in assay [1] is T1, VKOR (Homo sapiens, UniProt Q9BQB6).
T1 construct: from tissue; host or cells: patients on warfarin (in vivo); genomic DNA from whole blood
The experiment in a line: Correlation of VKOR gene SNPs with warfarin maintenance dose in patients. It is filed as in vivo. The source says: The most prevalent isoform of the VKOR gene is about 4 kb long, has three exons and encodes an enzyme of 163 amino acids with a mass of 18.4 kDa.
Subjects were obtained from the UNC Coagulation Clinic in the Ambulatory Care Center. Informed consent was obtained by a trained genetic counselor. Subjects not fluent in English were excluded because of the lack of translators and the requirement for consent.
Genomic DNAs were extracted from the whole blood of subjects using QIAamp DNA Blood Mini Kit (QIAGEN cat#51104). The DNA concentration was adjusted to 10 ng/μL.
Approximately 10 ng of DNA was used for polymerase chain reaction (PCR) assays. The primers used to amplify the VKOR gene were: Exon 1-5′ […] (SEQ ID NO:29) and Exon 1-3′ […] (SEQ ID NO:30) for the 5′-UTR and Exon 1 region; Exon 2-5′ […] (SEQ ID NO:31) and Exon 2-3′ […] (SEQ ID NO:32) for the Exon 2 region; and Exon 3-5′ […] (SEQ ID NO:33) and Exon 3-3′ […] (SEQ ID NO:34) for the Exon3 and 3′-UTR region. Automated high throughput capillary electrophoresis DNA sequencing was used for detecting SNPs in the VKOR gene.
The assay reagents for SNP genotyping were from the Assay-by-Design™ service (Applied Biosystems, cat#4332072). The primers and probes (FAM™ and VIC™ dye-labeled) were designed using Primer Express software and were synthesized in an Applied Biosystems synthesizer. The primer pairs for each SNP are located at the upstream/downstream position of the SNP site and can generate less than 100 bp length of a DNA fragment in the PCR reaction. The FAM™ and VIC™ dye-labeled probes were designed to cover the SNP sites with a length of 15-16 nt.
The 2× TaqMan™ Universal PCR Master Mix, No AmpErase UNG (Applied Biosystems, cat#4324018) was used in the PCR reactions. Forty cycles of real-time PCR were performed in an Opticon II (MJ Research) machine. There was a 10 minute 95° C. preheat followed by 92° C. for 15 sec, 60° C. for 1 min. and then a plate reading. The results were read according to the signal value of FAM and VIC dye.
The difference of average dose between different genotypes was compared by analysis of variance (ANOVA) using SAS version 8.0 (SAS, Inc., Cary, N.C.). A two-sided p value less than 0.05 was considered significant.
Each marker was first analyzed independently.
The three VKOR SNPs are located within 2 kb distance of one another and are expected to be closely linked.

Assay [2] concerns the target T1, VKOR. As to the kind of experiment: Warfarin sensitivity of VKOR (mGC11276) expressed in Sf9 insect cells. It is filed as biochemical. As for the experimental part:
FIG. 4. VKOR activity was detected when mGC_11276 was expressed in Sf9 insect cells. ˜1×10^6 cells were used in this assay. […] Blank Sf9 cells served as a negative control and A549 cells as a reference.
siRNA transfected A549 cells were trypsinized and washed twice with cold PBS. 1.5×10^7 cells were taken for each VKOR assay. 200 μL buffer D (250 mM Na2HPO4—NaH2PO4, 500 mM KCI, 20% glycerol and 0.75% CHAPS, pH 7.4) was added to the cell pellet, followed by sonication of the cell lysate. For assays of solubilized microsomes, microsomes were prepared from 2×10^9 cells as described (Lin et al. (2002) “The putative vitamin K-dependent gamma-glutamyl carboxylase internal propeptide appears to be the propeptide binding site” J Biol Chem 277:28584-91); 10 to 50 μL of solubilized microsomes were used for each assay. Vitamin K epoxide was added to the concentration indicated in the figure legends and DTT was added to 4 mM to initiate the reaction. […] 500 μL hexane was added and the mixture was vortexed vigorously for 1 minute to extract the vitamin K and KO. After 5 minutes centrifugation, the upper organic layer was transferred to a 5-mL brown vial and dried with N2. 150 μL HPLC buffer, acetonitrile:isopropanol:water (100:7:2), was added to dissolve the vitamin K and KO and the sample was analyzed by HPLC on an A C-18 column (Vydac, cat#218TP54). […]

T1 sequence (Q9BQB6 whole entry): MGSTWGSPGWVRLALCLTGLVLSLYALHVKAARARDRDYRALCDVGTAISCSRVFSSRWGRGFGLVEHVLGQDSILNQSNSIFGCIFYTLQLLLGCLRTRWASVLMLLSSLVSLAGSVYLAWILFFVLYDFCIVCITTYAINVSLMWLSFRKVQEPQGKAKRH

For the molecule `CC(=O)CC(c1ccccc1)c1c(O)c2ccccc2oc1=O` (stereo not shown) [warfarin], the average warfarin dose in assay [1] (patients heterozygous for vk2581, n=17) worked out at 35.19±3.73 mg per week; in assay [1] (patients heterozygous for vk3294, n=25), 41.68±4.92 mg per week; in assay [1] (patients heterozygous for vk4769, n=19), 44.48±4.80 mg per week; in assay [1] (patients homozygous for vk2581, n=15), 31.14±6.2 mg per week; in assay [1] (patients homozygous for vk3294, n=22), 47.73±2.75 mg per week; in assay [1] (patients homozygous for vk4769, n=12), 47.56±3.86 mg per week. Besides, the average warfarin dose is given as 50.19±3.20 mg per week in assay [1] (patients with vk2581 wild type allele, n=26); 35.35±4.01 mg per week in assay [1] (patients with vk4769 SNP wild type, n=27); 25.29±3.05 mg per week in assay [1] (patients with wild-type vk3294 allele, n=11). In addition, the warfarin dosage in assay [1] (patients with haplotype aaBBCC) was 25.29±3.05; in assay [1] (subjects with haplotype AAbbcc, n=7), 48.98±3.93. Besides, the “warfarin sensitivity of VKOR activity” value in assay [2] (Sf9 cells transfected with mGC11276 cDNA) is on record as “warfarin sensitive”; in assay [2] (microsomes from Sf9 cells expressing VKOR, 60 μM KO, 30° C., 15 minutes), “warfarin-sensitive”.
